{
  "source": "patent US20030070691A1",
  "about": "“Biocide formation via ozonation” (priority 2000, published 2003)",
  "key": {"[1]": {"system": "Enterococcus faecium (Gram positive)", "assay": "Biocidal test on dried cells on glass slides", "format": "cell-based", "procedure": "(§1) 0.1 milliliters of a 3×10^6 cfu/mL solution of bacteria cells harvested from a mid-log phase culture were placed on a glass microscope slide. The solution was allowed to dry for 2 hours leaving only cells on the surface. The slides were treated by immersing them in 10 mL of either: (i) sterile water; (ii) 10% ethanol in water; (iii) 10% ozonated ethanol in water; or (iv) 1% ozonated ethanol in water for either 5 or 20 seconds. Immediately after treatment the slides were removed from solution and immersed in 3-mL of a sterile saline solution and ultrasonicated for 10 minutes to dislodge the cells from the slide. The recovered cells were diluted, plated, and incubated at 37° C. overnight and colonies were counted to determine the number of survivors per slide. Initial recovery was determined using the above procedure but the treatment step was omitted."}, "[2]": {"system": "Klebsiella pneumoniae (Gram negative)", "assay": "Biocidal test on dried cells on glass slides", "format": "cell-based", "procedure": "as §1"}, "[3]": {"settings": "at 20° C.; Handbook of Chemistry and Physics; cited from earlier work"}, "Bacillus subtilis spores": {"system": "Bacillus subtilis spores", "assay": "Bacillus subtilis spore carrier disinfection test", "format": "cell-based", "settings": "30 minutes contact", "protocol": "Preparation of carriers. In each of the following examples, the disinfection solutions were evaluated using spores of Bacillus subtilis. Spores were placed onto glass carriers formed by cutting microscope slides in half lengthways. Slides were placed in a culture tube that was capped and sterilized prior to inoculation with spores. A total of 0.1 mL of a spore suspension containing 10% bovine serum albumin by weight was placed onto a small area near one end of the slide. Approximately 20 μL (microliters) of spore suspension was added at a time for 5 times, allowing each 20μL amount to dry between additions. Heat drying was performed by briefly holding the slide over a flame. The heat-fixed culture was stored in the refrigerator until needed for up to, but no longer than, 5 days.\nDisinfection of carriers. In the following examples, three vials were prepared, each containing 200 mL of the disinfectant composition to be evaluated. One spore carrier was placed into each vial. The spore carriers were held in the disinfection solutions for 30 minutes. After contacting was complete, the carriers were removed from the disinfection solutions using forceps and rinsed with sterile saline.\nSpore recovery and enumeration. After rinsing, each of the slides was placed in a sterile tube containing 2 mL of saline. […] Invert plates were incubated at 37° C. and counted after 24 hours. […]"}, "[4]": {"assay": "Dissolved ozone concentration by indigo colorimetric method", "format": "physicochemical", "settings": "for dissolved ozone concentration: ozonated 5 minutes, 10 wt % ozone gas", "procedure": "Solutions containing varying amounts of acetic acid were saturated with ozone. Solutions were prepared containing 50%, 75%, 90%, 95%, and 99% by volume acetic acid in water. In separate experiments, 100 mL of the above solutions were placed in 250 mL round bottom flasks fitted with a ground glass top. The top contained two fittings that permitted gas flow in through one fitting and gas flow out through the other. A mixture of ozone and oxygen was delivered from Lynntech's Model 124 Electrochemical Ozone generator to the solution through a stainless steel gas diffusing stone. The flow rate was approximately 1,000 mL of gas per minute, and the concentration of ozone was 10% by weight. The solutions were ozonated for 5 minutes and the concentration of dissolved ozone was determined by the indigo calorimetric method. An additional solution of 100 mL of deionized water and a solution of 100 mL of glacial acetic acid were also ozonated.\nThe concentration of dissolved ozone was determined by the indigo colorimetric method. An indigo stock solution was prepared by adding 500 mL of deionized water and 1 mL of phosphoric acid to a 1 L volumetric flask. 770 mg of potassium indigo trisulfonate was added to the flask, and stirring was continued until the dye was completely dissolved. The flask was filled to the mark with deionized water. A working indigo solution was prepared by adding 20 mL of indigo stock solution, 10 g of sodium dihydrogen phosphate (NaH2PO4), and 7 mL of concentrated phosphoric acid to a 1 L volumetric flask. The flask was filled to the mark with deionized water. The concentration of ozone in solution was determined by adding an aliquot of ozonated solution (typically 30 μL) to 3 mL of working indigo solution in a 1 cm path-length quartz cuvette. The cuvette was capped with a piece of Parafilm® (American National Can Company, Chicago, Ill.) and inverted a few times to mix the solutions. As a blank, the same volume the equivalent non-ozonated solution was added to 3 mL of working indigo solution in a matched cuvette and mixed. […] The absorbance at 600 nm was measured to provide the difference in absorbance between the blank and the sample. […]\nwhere ΔA is the difference in absorbance between the sample and the blank, b is the path-length of the cuvette, Vw is the volume of working indigo solution, Vs is the volume of sample, and f is 0.42. f is based on a sensitivity factor of 20,000/cm for the change in absorbance at 600 nm per mole of ozone added per liter. […]\n200 mL of 81% acetic acid by volume (in DI water) water was ozonated in a glass flask. […] At the same time a liquid sample was withdrawn from the beaker and its ozone concentration measured by the method described above. […]"}, "[5]": {"settings": "neutral aqueous solution, cited from earlier work"}, "[6]": {"assay": "Stability of ozonated ethanol solutions over 72 hours", "format": "physicochemical", "settings": "ethanol (99 vol. %) ozonated 4 hours at 22° C.; 72-hour period", "procedure": "The first step was the titration of hydrogen peroxide with ceric sulfate. A small amount of the peracetic acid solution (0.25 mL) was placed in 100 mL of ice-cold 1 N H2SO4 to which was also added three drops of ferroin indicator (Aldrich Chemical Company, Milwaukee, Wis.). The faint pink colored solution was then titrated with 0.1 M Ce(SO4)2 until the colorless endpoint was reached. Because cerium(IV) has a higher oxidation potential than hydrogen peroxide, hydrogen peroxide was oxidized to protons and molecular oxygen according the stoichiometry shown in the following reaction:\n5 mL of 0.18 M KI was added to the solution and the mixture was stirred for 30 seconds. The solution was then placed in the dark for 30 minutes. After the 30-minute reaction time, the solution was yellowish brown and the color was proportional to the amount of peracetic acid originally present in the solution. The brown color was produced by oxidation of the colorless iodide anion (I^−) to the brown-colored iodine (I2) molecule by peracetic acid as shown in the following reaction: […]\nExperiments were done to determine the stability of ozonated ethanol solutions over a 72-hour period. Ethanol (99 vol. %) was ozonated for 4 hours at 22° C. and the amount of AMP and peracetic acid was measured as a function of time over the next three days. […]"}, "[7]": {"settings": "5-second contact time, Log10 Start 4.9, Table 4"}, "[8]": {"settings": "20-second contact time, Log10 Start 5.4, Table 3"}, "[9]": {"settings": "20-second contact time, Log10 Start 7.4, Table 7"}, "[10]": {"settings": "5-second contact time, Log10 Start 5.3, Table 6"}, "[11]": {"settings": "20-second contact time, Log10 Start 4.8, Table 5"}, "[12]": {"settings": "20-second contact time, Log10 Start 6.3, Table 8"}},
  "note": "Values joined by “and” are separate entries in the source; they are usually repeats but may differ in a detail not shown here. Equal values may be shown once. Read-outs that look alike come from different tables or passages of the source.",
  "data": [
    {"molecule": "CCO", "note": "[10 vol. % Ethanol in Water (control), Ethanol]", "values": [
      {"measurement": "Log10 Recovered", "setting": "[1]; [7]", "result": 4.3, "unit": "Log10"},
      {"measurement": "Log10 Reduction", "setting": "[1]; [7]", "result": 0.6, "unit": "Log10"},
      {"measurement": "Log10 Recovered", "setting": "[1]; [8]", "result": 5.2, "unit": "Log10"},
      {"measurement": "Log10 Reduction", "setting": "[1]; [8]", "result": 0.2, "unit": "Log10"},
      {"measurement": "Log10 Recovered", "setting": "[1]; [9]", "result": 4.5, "unit": "Log10"},
      {"measurement": "Log10 Reduction", "setting": "[1]; [9]", "result": 2.9, "unit": "Log10"},
      {"measurement": "Log10 Recovered", "setting": "[2]; [10]", "result": 3.3, "unit": "Log10"},
      {"measurement": "Log10 Reduction", "setting": "[2]; [10]", "result": 2.0, "unit": "Log10"},
      {"measurement": "Log10 Recovered", "setting": "[2]; [11]", "result": 4.3, "unit": "Log10"},
      {"measurement": "Log10 Reduction", "setting": "[2]; [11]", "result": 0.5, "unit": "Log10"},
      {"measurement": "Log10 Recovered", "setting": "[2]; [12]", "result": 6.4, "unit": "Log10"},
      {"measurement": "Log10 Reduction", "setting": "[2]; [12]", "result": "−0.1", "unit": "Log10"}
    ]},
    {"molecule": "CCCC(=O)O", "note": "[butyric acid]", "values": [
      {"measurement": "published ionization constant", "setting": "[3]", "result": 4.81}
    ]},
    {"molecule": "CC(=O)O", "note": "[non-ozonated 81% acetic acid, acetic acid]", "values": [
      {"measurement": "log reduction in viable spores, best achieved", "setting": "Bacillus subtilis spores; Example 11", "result": "≤ 2.87", "unit": "log"},
      {"measurement": "sporicidal / disinfection activity in words", "setting": "Bacillus subtilis spores; glass carriers, spores in 10% bovine serum albumin", "result": "relatively ineffective"}
    ]},
    {"molecule": "O=[O+][O-]", "note": "[ozone]", "values": [
      {"measurement": "initial ozone concentration at the time the spore carriers were immersed", "setting": "[4]; in 81% acetic acid ozonated 10 minutes", "result": "125 ppm and 175 ppm"},
      {"measurement": "dissolved ozone concentration", "setting": "[4]; in DI water", "result": "about 30 ppm"},
      {"measurement": "initial ozone concentration", "setting": "[4]; in ozonated DI water, Example 11", "result": "≤ 31", "unit": "ppm"},
      {"measurement": "dissolved ozone concentration", "setting": "[4]; in pure acetic acid", "result": "greater than 400 ppm"},
      {"measurement": "Ozone Concentration (solubility)", "setting": "[5]; 0° C.", "result": "35 (ppm)"},
      {"measurement": "Ozone Concentration (solubility)", "setting": "[5]; 20° C.", "result": 21, "unit": "ppm"},
      {"measurement": "Ozone Concentration (solubility)", "setting": "[5]; 40° C.", "result": 4, "unit": "ppm"},
      {"measurement": "Ozone Concentration (solubility)", "setting": "[5]; 60° C.", "result": 0, "unit": "ppm"}
    ]},
    {"molecule": "CC(=O)OO", "note": "[peracetic acid]", "values": [
      {"measurement": "concentration in solution over time", "setting": "[6]", "result": "constant"}
    ]},
    {"molecule": "acetaldehyde monoperacetate [AMP]", "values": [
      {"measurement": "concentration in solution over time", "setting": "[6]", "result": "decreases considerably"}
    ]}
  ]
}
